According to US8420692B1, “Heterocyclic and carbonate derivatives of NDGA and their use as new anti-HIV and anti-cancer agents” (The Johns Hopkins University, priority 2006, dated 2013):
pIC50: −log10 of the molar value. Structures can show the parent of a compound that is named as a salt.

Key:
[1] = tested on: HIV Tat-regulated transactivation; test: cells; type: cell-based; settings: for Inhibition (%) of HIV Tat-regulated Transactivation in COS Cells: average of three experiments
Procedure: The COS cells were co-transfected with a Tat-producing plasmid and a plasmid containing the HIV LTR linked to the SeAP reporter gene. Transfected cells were treated with various concentrations of 5b P4N. After 48 h, aliquots of media were removed and analysis of SeAP activity was performed. The percent inhibition of SeAP activity by 5b P4N ? was calculated in comparison with the percent of growth inhibition of untransfected COS cells by P4N ?
The medium used for dilution of compounds and maintenance of cultures during the assay was the same as described above. Cultures were maintained in disposable tissue culture labware at 37° C. in a humidified atmosphere of CO2 (5.0%) in air. Compounds were dissolved as stock solutions in water or dimethyl sulfoxide (DMSO) at the concentration of 10 mM. The stock solutions were diluted with H2O (5a-d) or DMSO (6a,b and 7) and dilute by medium to the desired concentration by a 30-s vortex just before addition into the cell culture. Triplicate cell samples were seeded at density of ˜1.5×10^4 cell per well in Libro 24-well flat-bottom culture dishes (17-mm diameter), which were incubated for 24 h until they reached 50% confluence. The cells were cotransfected by the calcium phosphate procedure with DNA from plasmids pBC12/CMV/t2 (coding for Tat function, 0.20 μg/well) and pBC12/HIV/SeAP (0.40 μg/well). Cells and DNAs were kept in contact for 6.0 h; then the medium was aspirated and replaced by 500 μL of medium containing the test compound. The compound-treated cells were then incubated for additional 48 h. At the end of incubation, an aliquot of cell culture medium was removed and SeAP activities were analyzed by spectrametric method.^20 The sample of culture medium were heated at 65° C. for 5.0 min to inactivate endogenous phosphatases selectively (SeAP is thermal stable). The buffer solution of 2×SeAP (100 μL, 1.0 M diethanolamine, pH 9.8; 0.50 mM MgCl2; 10 mM L-homoarginine) was added to the culture medium sample (100 μL) in a 96-well flat-bottom culture dish (Corning). Then, the substrate solution ([…], 120 mM, p-nitrophenyl phosphate dissolved in 1×SeAP buffer) was dispensed into each well containing the reaction mixture. The absorbance at wavelength 405 nm specific for the hydrolysis product was read at 2.5 min intervals at 37° C. over the course of 60 min on an EL340i microplate reader (Bio-tek Instruments) with 5 s automatic shaking before each reading.
Two plasmid constructs^19 were used to test the effect of synthesized NDGA derivatives on Tat-regulated HIV transactivation as described previously.^12,13,19 The plasmid constructs included a cytomegalovirus (CMV) promoter driven tat gene and SP1 regulated HIV LTR promoter driven reporter gene (i.e., SeAP). A standard SeAP assay in the absence of drug was initially run to find out efficiency of transfection.

[2] = tested on: human liver cancer line Hep3B; test: MTT-based cytotoxicity / proliferation assay, Hep3B; type: cell-based
Procedure: (§1) The cytotoxicity of P4N against Vero cells and human cancer cells HEP3B, HT29 and MCF7 was analyzed using an MTT [3-(4,5-dimethylthiazol-2-yl)-2,5-diphenyltetrazolium bromide]-based assay (Sigma). The absorbance of OD570 was a measurement of formazon crystals solubilized in DMSO from metabolically active cells. Procedures were discussed in Huang R C C, et al. in Antiviral Res 58, 57-64 2003.^10
(§2) We have previously shown that M4N arrests tumor cells growth at G2-M phase of the cell cycle by reducing the level of Cdc2 protein and kinase activity,^17,18 and induces apoptosis by suppressing survivin gene expression and protein stability and activating the mitochondrial apoptosis pathway.^17 M4N is able to reverse the multidrug resistance by inhibiting the Sp1-regulated MDR1 gene expression and preventing the synthesis of p-glycoprotein (Pgp).^24 To investigate the effect of water soluble NDGA derivative P4N on growth of the transformed cells, four cell lines, Vero cell (African green monkey kidney cells), human liver cancer line Hep3B, colon cancer cell line HT29, and human breast cancer line MCF-7 were selected for testing. The Vero cell line is aneuploid.

[3] = tested on: colon cancer cell line HT29; test: MTT-based cytotoxicity / proliferation assay, HT29; type: cell-based, human
Procedure: as §1, §2

[4] = tested on: HSV-2; test: Efficacy against HSV-2 in a mouse vaginal model; type: in vivo; settings: for Toxicity in animals: female mice treated locally with 10 mM
Procedure: The efficacies of P4N against HSV-2 in a mouse vaginal model system have been examined. Progestin treated female CF-1 mice (10 per group) were infected with HSV-2 in the absence or presence of P4N (in PBS). At the end of three days, the vaginal lavages were collected from the washings of the vaginal regions. The status of the vaginal HSV-2 infection and replication were examined by their cytopathic effects on cultured human foreskin fibroblast cells. Monitoring and scoring were carried out by three persons independently. […] At 10 mM concentration only 2 of 10 mice were weakly infected.

`C[C@H](Cc1ccc(OCCN2CCCCC2)c(OCCN2CCCCC2)c1)[C@@H](C)Cc1ccc(OCCN2CCCCC2)c(OCCN2CCCCC2)c1` [Compound 5b, meso-2,3-Dimethyl-1,4-bis(3,4-[2-(piperidino)ethoxyphenyl])butane Tetrakishydrochloride Salt] was tested, and the “Inhibition (%) of HIV Tat-regulated Transactivation in COS Cells” value (shortened to “Inhibition (%)”) ([1]; 0.10 μM) was 8.7%, the “Inhibition (%)” value ([1]; 0.25 μM) was 4.3% and the “Inhibition (%)” value ([1]; 0.50 μM) was 29.0%. The “Inhibition (%)” value ([1]; 1.0 μM) was 56.8%, the “Inhibition (%)” value ([1]; 2.5 μM) was 90.6% and the “Inhibition (%)” value ([1]; 5.0 μM) was 97.0%. The “Inhibition (%)” value ([1]; 10 μM) was 99.8%, the “Inhibition (%)” value ([1]; 20 μM) was 100% and the “Inhibition (%)” value ([1]; 40 μM) was 100%. For the same compound, the “Inhibition (%)” value ([1]; 80 μM) was 100%, the “Inhibition (%)” value ([1]; 100 μM) was 97.7% and the pIC50 ([1]; COS cells, SeAP, mean of triplicate determinations, read-out: IC50, HIV Tat-regulated transactivation) was 6.06. The “HIV transactivation at the concentration without effect on cos cell growth” value ([1]; ≦1 μM, FIG. 9) was “fully inhibited”, the pIC50 ([2]; 48 hrs, 37° C.) was 5.70 and the “Concentration that effectively eliminates growth of tumor cells” value ([2]; Hep3B, FIG. 11) was under 5 µM. For the same compound, the pIC50 ([3]; 48 hrs, 37° C., read-out: IC50, proliferation of HT-29) was 6.10, the “Concentration that effectively eliminates growth of tumor cells” value ([3]; HT29, FIG. 11) was under 5 µM and the “Mice weakly infected with HSV-2” value ([4]; 10 mM P4N in PBS, local, female CF-1 mice, 10 per group, day 3 vaginal lavage) was 2 of 10. The “Average scale of vaginal HSV-2 infection (cytopathic effect score)” value ([4]; 10 mM P4N, 2.43 in the absence of P4N) was 0.19, the Toxicity in animals [4] was “no apparent sign of toxicity” and the Toxicity in animals ([4]; listed as P4N) was “little or no toxicity”.
